Literature values in patent US20100016430A1, “MODIFIED COCONUT OILS WITH BROAD ANTIMICROBIAL SPECTRUM” (MALAYSIAN AGRICULTERAL RESEARCH AND DEVELOPMENT IN, priority 2005, published 2010).

Experiments:
H. pylori = settings: 10 mM for 30 min at 37° C.
C. albicans = settings: Bergsson et al. 2001
Pseudomonas spp = settings: 250 and 500 ppm in naturally contaminated cottage cheese
C. trachomatis = settings: for Effect on C. trachomatis: 10 mM concentration
coliform = settings: 250 and 500 ppm in naturally contaminated cottage cheese

CCCCCCCCCC(=O)OCC(O)CO (stereo not drawn) [monocaprin]
Activity against H. pylori (H. pylori): most active

CCCCCCCCCCCCCC(=O)O [myristic acid]
Killing of C. albicans / antimicrobial effect (C. albicans): do not shown antimicrobial effect

CCCCCCCCCCCC(=O)OCC(O)CO (stereo not drawn) [monolaurin]
Inhibition of Pseudomonas spp (Pseudomonas spp): more than 90% | Activity against H. pylori (H. pylori): most active | Effect on C. trachomatis (C. trachomatis): negligible effect | Inhibition of coliform (coliform): more than 90%

CCCCCCCCCCCC(=O)O [lauric acid]
Inactivation of C. trachomatis (C. trachomatis; 5 mM for 5 min): greater than 100,000 fold | Killing of C. albicans / antimicrobial effect (C. albicans): fastest and most effective killing

CCCCCCCC(=O)OCC(O)CO (stereo not drawn) [monocaprylin]
Effect on C. trachomatis (C. trachomatis): negligible effect

CCCCCCCC/C=C\CCCCCCCC(=O)O [oleic acid]
Killing of C. albicans / antimicrobial effect (C. albicans): do not shown antimicrobial effect

CCCCCC/C=C\CCCCCCCC(=O)O [palmitoleic acid]
Killing of C. albicans / antimicrobial effect (C. albicans): do not shown antimicrobial effect

CCCCCCCCCC(=O)O [capric acid]
Killing of C. albicans / antimicrobial effect (C. albicans): fastest and most effective killing
